From PubChem BioAssay AID248 (DTP/NCI, 2004)
Inconclusive results and toxic doses are left out.

Test system: L1210 leukemia ip in BDF1 mice, survival T/C
Experiment: NCI In Vivo Anticancer Drug Screen. Data for tumor model L1210 Leukemia (intraperitoneal) in B6D2F1 (BDF1) mice
Conditions: endpoint: mean survival time, higher = longer survival
Summary of the method: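 Read-out is survival time, reported as the treated-group measurement over the vehicle-control measurement.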

[1] = dose: 50.0 mg/kg/injection, schedule: Q01DX001 (ip), vehicle: saline
[2] = dose: 100.0 mg/kg/injection, schedule: Q01DX001 (ip), vehicle: saline
[3] = dose: 200.0 mg/kg/injection, schedule: Q01DX001 (ip), vehicle: saline
[4] = dose: 400.0 mg/kg/injection, schedule: Q01DX001 (ip), vehicle: saline
[5] = dose: 100.0 mg/kg/injection, schedule: Q01DX009 (ip), vehicle: Klucel (hydroxypropylcellulose) (HPC)
[6] = dose: 200.0 mg/kg/injection, schedule: Q01DX009 (ip), vehicle: Klucel (hydroxypropylcellulose) (HPC)
[7] = dose: 400.0 mg/kg/injection, schedule: Q01DX009 (ip), vehicle: Klucel (hydroxypropylcellulose) (HPC)
[8] = dose: 100.0 mg/kg/injection, schedule: Q04DX003 (ip), vehicle: Klucel (hydroxypropylcellulose) (HPC)
[9] = dose: 200.0 mg/kg/injection, schedule: Q04DX003 (ip), vehicle: Klucel (hydroxypropylcellulose) (HPC)
[10] = dose: 100.0 mg/kg/injection, schedule: Q04DX002 (ip), vehicle: Klucel (hydroxypropylcellulose) (HPC)
[11] = dose: 200.0 mg/kg/injection, schedule: Q04DX002 (ip), vehicle: Klucel (hydroxypropylcellulose) (HPC)
[12] = dose: 400.0 mg/kg/injection, schedule: Q04DX002 (ip), vehicle: Klucel (hydroxypropylcellulose) (HPC)
[13] = dose: 100.0 mg/kg/injection, schedule: Q01DX001 (ip), vehicle: carboxymethylcellulose (CMC)
[14] = dose: 200.0 mg/kg/injection, schedule: Q01DX001 (ip), vehicle: carboxymethylcellulose (CMC)
[15] = dose: 100.0 mg/kg/injection, schedule: Q01DX009 (ip), vehicle: saline with Tween-80
[16] = dose: 200.0 mg/kg/injection, schedule: Q01DX009 (ip), vehicle: saline with Tween-80
[17] = dose: 100.0 mg/kg/injection, schedule: Q04DX003 (ip), vehicle: saline

Nc1ncnc2c1ncn2C1CC(CO)C(O)C1O (stereo not drawn)
T/C (dose: 2.0 mg/kg/injection, schedule: Q01DX015 (ip), vehicle: Klucel (hydroxypropylcellulose) (HPC)): 114 % of control | T/C (dose: 3.0 mg/kg/injection, schedule: Q01DX015 (ip), vehicle: Klucel (hydroxypropylcellulose) (HPC)): 91 % of control | T/C (dose: 4.4 mg/kg/injection, schedule: Q01DX015 (ip), vehicle: Klucel (hydroxypropylcellulose) (HPC)): 93 % of control | T/C (dose: 6.25 mg/kg/injection, schedule: Q01DX009 (ip), vehicle: carboxymethylcellulose (CMC)): 98 % of control | T/C (dose: 6.7 mg/kg/injection, schedule: Q01DX015 (ip), vehicle: Klucel (hydroxypropylcellulose) (HPC)): 96 % of control | T/C (dose: 10.0 mg/kg/injection, schedule: Q01DX015 (ip), vehicle: Klucel (hydroxypropylcellulose) (HPC)): 97 % of control | T/C (dose: 12.5 mg/kg/injection, schedule: Q01DX009 (ip), vehicle: carboxymethylcellulose (CMC)): 97 % of control | T/C (dose: 15.0 mg/kg/injection, schedule: Q01DX015 (ip), vehicle: Klucel (hydroxypropylcellulose) (HPC)): 98 % of control | T/C (dose: 25.0 mg/kg/injection, schedule: Q01DX009 (ip), vehicle: carboxymethylcellulose (CMC)): 89 % of control | T/C [1]: 93 % of control | T/C [2]: 102 % of control | T/C [3]: 91 % of control | T/C [4]: 88 % of control

CN(C)c1ccc(/C=C2\CC/C(=C\c3ccc(N(C)C)cc3)C2=O)cc1
T/C [5]: 105 % of control | T/C [6]: 97 % of control | T/C [7]: 89 % of control

Cc1cc(Oc2nc(Cl)nc(C(Cl)(Cl)Cl)c2Cl)cc(C)c1N(C)C (tested in a mixture with another compound)
T/C [8]: 91 % of control | T/C [9]: 105 % of control

C#CC(OC(=O)N(C)C)(c1ccccc1)c1ccc(F)cc1 (stereo not drawn)
T/C (dose: 5.0 mg/kg/injection, schedule: Q01DX001 (ip), vehicle: saline): 108 % of control | T/C (dose: 10.0 mg/kg/injection, schedule: Q01DX001 (ip), vehicle: saline): 105 % of control | T/C (dose: 20.0 mg/kg/injection, schedule: Q01DX001 (ip), vehicle: saline): 109 % of control | T/C (dose: 40.0 mg/kg/injection, schedule: Q01DX001 (ip), vehicle: saline): 117 % of control

O=C1NCCC/C1=N/Nc1ccccc1
T/C [10]: 92 % of control | T/C [11]: 92 % of control | T/C [12]: 113 % of control

COC(=O)c1[nH]cnc1N
T/C (dose: 50.0 mg/kg/injection, schedule: Q01DX001 (ip), vehicle: carboxymethylcellulose (CMC)): 97 % of control | T/C [13]: 105 % of control | T/C [14]: 97 % of control | T/C (dose: 400.0 mg/kg/injection, schedule: Q01DX001 (ip), vehicle: carboxymethylcellulose (CMC)): 94 % of control

Cc1cnc2c(N)nn(-c3ccccc3)c2n1
T/C [15]: 93 % of control | T/C (dose: 100.0 mg/kg/injection, schedule: Q04DX003 (ip), vehicle: saline with Tween-80): 95 % of control | T/C [16]: 101 % of control | T/C (dose: 200.0 mg/kg/injection, schedule: Q04DX003 (ip), vehicle: saline with Tween-80): 97 % of control | T/C (dose: 400.0 mg/kg/injection, schedule: Q01DX009 (ip), vehicle: saline with Tween-80): 98 % of control | T/C (dose: 400.0 mg/kg/injection, schedule: Q04DX003 (ip), vehicle: saline with Tween-80): 94 % of control

CNC(=O)NN
T/C (dose: 25.0 mg/kg/injection, schedule: Q04DX002 (ip), vehicle: saline with Tween-80): 97 % of control | T/C (dose: 50.0 mg/kg/injection, schedule: Q04DX002 (ip), vehicle: saline with Tween-80): 93 % of control | T/C (dose: 100.0 mg/kg/injection, schedule: Q04DX002 (ip), vehicle: saline with Tween-80): 90 % of control

CCCCCCCCCC(=O)N1C(C)CCCC1C (stereo not drawn)
T/C (dose: 100.0 mg/kg/injection, schedule: Q04DX002 (ip), vehicle: saline): 94 % of control | T/C (dose: 200.0 mg/kg/injection, schedule: Q04DX002 (ip), vehicle: saline): 105 % of control | T/C (dose: 400.0 mg/kg/injection, schedule: Q04DX002 (ip), vehicle: saline): 105 % of control

c1ccc(Cc2ccncc2)cc1
T/C [15]: 101 % of control | T/C [16]: 106 % of control

CN(C)C(=O)Nc1cccc2nsnc12
T/C [5]: 106 % of control | T/C [6]: 104 % of control | T/C [7]: 102 % of control

O=C1COC(C(Cl)(Cl)Cl)CN1 (stereo not drawn)
T/C (dose: 100.0 mg/kg/injection, schedule: Q01DX001 (ip), vehicle: saline with Tween-80): 108 % of control | T/C (dose: 200.0 mg/kg/injection, schedule: Q01DX001 (ip), vehicle: saline with Tween-80): 105 % of control | T/C (dose: 400.0 mg/kg/injection, schedule: Q01DX001 (ip), vehicle: saline with Tween-80): 103 % of control

CCOC(=O)c1ccc(N=Cc2cccc([N+](=O)[O-])c2)cc1
T/C [8]: 89 % of control | T/C [9]: 88 % of control | T/C (dose: 400.0 mg/kg/injection, schedule: Q04DX003 (ip), vehicle: Klucel (hydroxypropylcellulose) (HPC)): 96 % of control

ClCCCSCCCCl
T/C [1]: 103 % of control | T/C [2]: 112 % of control | T/C [3]: 124 % of control | T/C [4]: 95 % of control

O=NN(CC(Cl)CN(N=O)C(=O)NC1CCCCC1)C(=O)NC1CCCCC1
T/C (dose: 8.0 mg/kg/injection, schedule: Q01DX001 (ip), vehicle: other): 97 % of control | T/C (dose: 16.0 mg/kg/injection, schedule: Q01DX001 (ip), vehicle: other): 108 % of control | T/C (dose: 31.0 mg/kg/injection, schedule: Q01DX001 (ip), vehicle: other): 90 % of control | T/C (dose: 62.0 mg/kg/injection, schedule: Q01DX001 (ip), vehicle: other): 100 % of control | T/C (dose: 125.0 mg/kg/injection, schedule: Q01DX001 (ip), vehicle: other): 95 % of control | T/C (dose: 250.0 mg/kg/injection, schedule: Q01DX001 (ip), vehicle: other): 92 % of control | T/C (dose: 500.0 mg/kg/injection, schedule: Q01DX001 (ip), vehicle: other): 97 % of control | T/C (dose: 750.0 mg/kg/injection, schedule: Q01DX001 (ip), vehicle: other): 102 % of control | T/C (dose: 1000.0 mg/kg/injection, schedule: Q01DX001 (ip), vehicle: other): 102 % of control

CN(C)c1ccc(N=Nc2cc(Cl)cc(Cl)c2)cc1
T/C [13]: 89 % of control | T/C [14]: 91 % of control

CC(=O)CCc1ccc(Cl)cc1
T/C [1]: 101 % of control | T/C [2]: 107 % of control | T/C [10]: 105 % of control | T/C [3]: 107 % of control | T/C [11]: 105 % of control | T/C [4]: 106 % of control | T/C [12]: 105 % of control

c1nc(Sc2ncnc3nc[nH]c23)c2[nH]cnc2n1
T/C [1]: 108 % of control | T/C (dose: 75.0 mg/kg/injection, schedule: Q01DX015 (ip), vehicle: saline): 114 % of control | T/C [2]: 104 % of control | T/C (dose: 150.0 mg/kg/injection, schedule: Q01DX015 (ip), vehicle: other): 213 % of control | T/C [3]: 119 % of control | T/C (dose: 238.0 mg/kg/injection, schedule: Q01DX001 (ip), vehicle: saline): 115 % of control | T/C (dose: 300.0 mg/kg/injection, schedule: Q01DX015 (ip), vehicle: other): 176 % of control | T/C (dose: 356.0 mg/kg/injection, schedule: Q01DX001 (ip), vehicle: saline): 117 % of control | T/C (dose: 600.0 mg/kg/injection, schedule: Q01DX015 (ip), vehicle: other): 108 % of control | T/C (dose: 600.0 mg/kg/injection, schedule: Q01DX015 (ip), vehicle: saline): 117 % of control

CC(=O)Nc1ccc(S(=O)(=O)Nc2cc(C)ns2)cc1
T/C [17]: 92 % of control | T/C (dose: 200.0 mg/kg/injection, schedule: Q04DX003 (ip), vehicle: saline): 96 % of control | T/C (dose: 400.0 mg/kg/injection, schedule: Q04DX003 (ip), vehicle: saline): 100 % of control

CC[NH-].CC[NH-].[I][Pt+2][I]
T/C (dose: 12.5 mg/kg/injection, schedule: Q04DX003 (ip), vehicle: saline): 106 % of control | T/C (dose: 25.0 mg/kg/injection, schedule: Q01DX009 (ip), vehicle: saline): 109 % of control | T/C (dose: 25.0 mg/kg/injection, schedule: Q04DX003 (ip), vehicle: saline): 101 % of control | T/C (dose: 50.0 mg/kg/injection, schedule: Q01DX009 (ip), vehicle: saline): 105 % of control | T/C (dose: 50.0 mg/kg/injection, schedule: Q04DX003 (ip), vehicle: saline): 101 % of control | T/C [17]: 110 % of control
